Data taken from ChEMBL document CHEMBL1201862, “PubChem BioAssay data set” (2004).
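Exposure lasted 48 hours, with cells grown in 96-well plates and compounds tested at five concentrations. Abbreviation: GI50, concentration required for 50% inhibition of growth.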 Active and inactive are the calls of the source. Rule as the data show it: active = GI50 up to about 1.1 µM and inactive = higher.

How the values were obtained:
Assay in all cases: NCI anticancer screen, dose series, 48 h
HOP-92 = test system: HOP-92
OVCAR-3 = test system: OVCAR-3
UACC-62 = test system: UACC-62
UACC-257 = test system: UACC-257
Malme-3M = test system: Malme-3M
M14 = test system: M14
MCF7 = test system: MCF7
A498 = test system: A498
HCT-116 = test system: HCT-116
MDA-MB-231 = test system: MDA-MB-231
SNB-19 = test system: SNB-19
T47D = test system: T47D
NCI-H23 = test system: NCI-H23
CAKI-1 = test system: CAKI-1
BT-549 = test system: BT-549
UO-31 = test system: UO-31
HCT-15 = test system: HCT-15
LOX IMVI = test system: LOX IMVI
KM12 = test system: KM12
MDA-MB-435 = test system: MDA-MB-435

| SMILES | GI50 (HOP-92) | GI50 (OVCAR-3) | GI50 (UACC-62) | GI50 (UACC-257) | GI50 (Malme-3M) | GI50 (M14) | GI50 (MCF7) | GI50 (A498) | GI50 (HCT-116) | GI50 (MDA-MB-231) | GI50 (SNB-19) | GI50 (T47D) | GI50 (NCI-H23) | GI50 (CAKI-1) | GI50 (BT-549) | GI50 (UO-31) | GI50 (HCT-15) | GI50 (LOX IMVI) | GI50 (KM12) | GI50 (MDA-MB-435) |
| --- | --- | --- | --- | --- | --- | --- | --- | --- | --- | --- | --- | --- | --- | --- | --- | --- | --- | --- | --- | --- |
| Cc1cc(N(CCC#N)CCC#N)ccc1/C=C1N=C(/C=C\c2ccccc2)N(c2ccc(Cl)cc2)C\1=O | > 95.7 µM (inactive) | 40.5 µM (inactive) | 0.746 µM (active) | > 54.6 µM (inactive) | 17.7 µM (inactive) | 1.29 µM (inactive) | 29.2 µM (inactive) | > 100 µM (inactive) | 6.76 µM (inactive) | > 100 µM (inactive) | > 100 µM (inactive) | > 100 µM (inactive) | 36.6 µM (inactive) | > 24.3 µM (inactive) | 1.49 µM (inactive) | 7.36 µM (inactive) | 0.718 µM | 1.01 µM (active) | 4.52 µM (inactive) | – |
| Cc1cc2c(cc1Cl)SSc1cc(Cl)c(C)cc1S(=O)(=O)Nc1nc(N)nn1C(O)n1nc(N)nc1NS2(=O)=O | > 10 µM (inactive) | > 10 µM (inactive) | – | > 10 µM (inactive) | > 10 µM (inactive) | > 10 µM (inactive) | > 10 µM (inactive) | > 10 µM (inactive) | > 10 µM (inactive) | – | > 10 µM (inactive) | > 10 µM (inactive) | > 10 µM (inactive) | > 10 µM (inactive) | > 10 µM (inactive) | > 10 µM (inactive) | > 10 µM | > 10 µM (inactive) | > 10 µM (inactive) | – |
| CN(C)c1ccc(/C=C2\C[C@H]3[C@@H]4CCC5=CC(=O)CC[C@]5(C)[C@H]4CC[C@]3(C)C2=O)cc1 | 22.4 µM (inactive) | 88.1 µM (inactive) | 20 µM (inactive) | 19 µM (inactive) | 25 µM (inactive) | 43.9 µM (inactive) | 21.8 µM (inactive) | 37.7 µM (inactive) | 24.7 µM (inactive) | 38.9 µM (inactive) | > 100 µM (inactive) | 17.4 µM (inactive) | 52.7 µM (inactive) | > 100 µM (inactive) | 51.2 µM (inactive) | 63.2 µM (inactive) | 34.4 µM | 20.8 µM (inactive) | 72.1 µM (inactive) | – |
| COc1c(NC(C)=O)c2ccccc2c2ccccc12 | 42.2 µM (inactive) | > 100 µM (inactive) | > 100 µM (inactive) | > 100 µM (inactive) | > 100 µM (inactive) | > 100 µM (inactive) | – | > 100 µM (inactive) | > 100 µM (inactive) | > 100 µM (inactive) | > 100 µM (inactive) | > 100 µM (inactive) | > 100 µM (inactive) | – | > 100 µM (inactive) | 89.3 µM (inactive) | > 100 µM | > 100 µM (inactive) | > 100 µM (inactive) | > 100 µM (inactive) |
| CC1CCC2C(C)(C)CC3(C)CCC1C23O (centres undefined) | 13.3 µM (inactive) | 16.3 µM (inactive) | 14.9 µM (inactive) | 16.2 µM (inactive) | 13.3 µM (inactive) | 16 µM (inactive) | 15.8 µM (inactive) | 18.5 µM (inactive) | 14.8 µM (inactive) | 16.2 µM (inactive) | 29.1 µM (inactive) | – | 16.1 µM (inactive) | 14.2 µM (inactive) | 18.1 µM (inactive) | 16.4 µM (inactive) | 16.9 µM | 15.3 µM (inactive) | 15.5 µM (inactive) | 15.6 µM (inactive) |
| CN1C2CCC1CC(CCOC(c1ccc(F)cc1)c1ccc(F)cc1)C2 (centres undefined) | 15.7 µM (inactive) | 16 µM (inactive) | – | 17.1 µM (inactive) | 15.1 µM (inactive) | 16.4 µM (inactive) | – | 17.8 µM (inactive) | 12.7 µM (inactive) | 16.2 µM (inactive) | 20.7 µM (inactive) | 18.5 µM (inactive) | 19.5 µM (inactive) | 16.3 µM (inactive) | 16.9 µM (inactive) | 14.6 µM (inactive) | 16.9 µM | 16.6 µM (inactive) | 14.8 µM (inactive) | 12.4 µM (inactive) |
| CN1CN(c2ccccc2)C2(CCN(CCCC3(c4cccs4)OCCO3)CC2)C1=O | 28.7 µM (inactive) | > 100 µM (inactive) | > 100 µM (inactive) | > 100 µM (inactive) | > 100 µM (inactive) | 96.8 µM (inactive) | > 100 µM (inactive) | > 100 µM (inactive) | > 100 µM (inactive) | > 100 µM (inactive) | > 100 µM (inactive) | > 100 µM (inactive) | 77.6 µM (inactive) | > 100 µM (inactive) | – | > 100 µM (inactive) | > 100 µM | > 100 µM (inactive) | > 100 µM (inactive) | > 100 µM (inactive) |
